Measurements published in PMC8341778, “Deciphering the substrate recognition mechanisms of the heparan sulfate 3-O-sulfotransferase-3” (RSC Chemical Biology, 2021).

Assays:
[1] = target: T1, 3-OST-3 (Homo sapiens, UniProt Q9Y663); experiment: crystal structure of ternary complex, […] Å; type: binding; conditions: with PAP; sodium ion at saccharides f and g
T1 construct: gene HS3ST3A1; purified enzyme; two molecules in the asymmetric unit
T1 sequence (Q9Y663 1-406): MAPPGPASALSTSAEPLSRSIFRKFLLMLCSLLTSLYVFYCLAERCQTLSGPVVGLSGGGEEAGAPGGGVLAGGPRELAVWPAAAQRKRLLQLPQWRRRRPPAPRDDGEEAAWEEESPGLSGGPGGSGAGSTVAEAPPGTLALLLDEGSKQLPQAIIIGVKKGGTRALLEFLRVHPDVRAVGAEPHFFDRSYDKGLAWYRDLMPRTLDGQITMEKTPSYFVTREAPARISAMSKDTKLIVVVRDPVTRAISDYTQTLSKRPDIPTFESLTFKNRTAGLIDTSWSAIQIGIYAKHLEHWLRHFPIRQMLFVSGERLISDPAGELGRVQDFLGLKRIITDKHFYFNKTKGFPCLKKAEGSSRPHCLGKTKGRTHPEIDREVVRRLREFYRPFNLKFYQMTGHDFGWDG

[2] = target: T1, 3-OST-3; experiment: isothermal titration calorimetry; type: binding
[3] = target: T1, 3-OST-3; experiment: inhibition of sulfotransferase activity; type: biochemical

Compound | crystal structure of ternary complex, 2.34 Å [1] | Kd [2] | IC50 ([3]; product inhibition, 8-mer 1 sulfation) | IC50 ([3]; substrate inhibition, compound is itself slowly sulfated) | IC50 ([3]; product inhibition)
CC(=O)N[C@H]1[C@@H](O[C@H]2[C@H](O)[C@@H](O)[C@H](O[C@H]3[C@H](O)[C@@H](NS(=O)(=O)O)[C@@H](O[C@H]4[C@H](O)[C@@H](OS(=O)(=O)O)[C@H](O[C@H]5[C@H](O)[C@@H](NS(=O)(=O)O)[C@@H](O[C@H]6[C@H](O)[C@@H](OS(=O)(=O)O)[C@H](O[C@H]7[C@H](O)[C@@H](NS(=O)(=O)O)[C@@H](O[C@H]8[C@H](O)[C@@H](O)[C@H](Oc9ccc([N+](=O)[O-])cc9)O[C@@H]8C(=O)O)O[C@@H]7CO)O[C@H]6C(=O)O)O[C@@H]5CO)O[C@H]4C(=O)O)O[C@@H]3CO)O[C@@H]2C(=O)O)O[C@H](CO)[C@@H](O)[C@@H]1O [8-mer 1] | crystal structures of 3-OST-3 in the presence of PAP, the sulfo donor product analog | – | – | – | –
CC(=O)N[C@H]1[C@@H](O[C@H]2[C@H](O)[C@@H](O)[C@H](O[C@H]3[C@H](O)[C@@H](NS(=O)(=O)O)[C@@H](O[C@H]4[C@H](O)[C@@H](OS(=O)(=O)O)[C@H](O[C@H]5[C@H](OS(=O)(=O)O)[C@@H](NS(=O)(=O)O)[C@@H](O[C@H]6[C@H](O)[C@@H](OS(=O)(=O)O)[C@H](O[C@H]7[C@H](O)[C@@H](NS(=O)(=O)O)[C@@H](O[C@H]8[C@H](O)[C@@H](O)[C@H](Oc9ccc([N+](=O)[O-])cc9)O[C@@H]8C(=O)O)O[C@@H]7CO)O[C@H]6C(=O)O)O[C@@H]5CO)O[C@H]4C(=O)O)O[C@@H]3CO)O[C@@H]2C(=O)O)O[C@H](CO)[C@@H](O)[C@@H]1O [8-mer 2] | – | 74000 nM | ~1000 nM | – | –
CC(=O)N[C@H]1[C@@H](O[C@H]2[C@H](O)[C@@H](O)[C@H](O[C@H]3[C@H](O)[C@@H](NS(=O)(=O)O)[C@@H](O[C@H]4[C@H](O)[C@@H](OS(=O)(=O)O)[C@H](O[C@H]5[C@H](O)[C@@H](NS(=O)(=O)O)[C@@H](O[C@H]6[C@H](O)[C@@H](OS(=O)(=O)O)[C@H](O[C@H]7[C@H](O)[C@@H](NS(=O)(=O)O)[C@@H](O[C@H]8[C@H](O)[C@@H](O)[C@H](Oc9ccc([N+](=O)[O-])cc9)O[C@@H]8C(=O)O)O[C@@H]7COS(=O)(=O)O)O[C@H]6C(=O)O)O[C@@H]5COS(=O)(=O)O)O[C@H]4C(=O)O)O[C@@H]3COS(=O)(=O)O)O[C@@H]2C(=O)O)O[C@H](COS(=O)(=O)O)[C@@H](O)[C@@H]1O [8-mer 3] | – | 10000 nM | – | 150 nM | –
CC(=O)N[C@H]1[C@@H](O[C@H]2[C@H](O)[C@@H](O)[C@H](O[C@H]3[C@H](O)[C@@H](NS(=O)(=O)O)[C@@H](O[C@H]4[C@H](O)[C@@H](OS(=O)(=O)O)[C@H](O[C@H]5[C@H](OS(=O)(=O)O)[C@@H](NS(=O)(=O)O)[C@@H](O[C@H]6[C@H](O)[C@@H](OS(=O)(=O)O)[C@H](O[C@H]7[C@H](O)[C@@H](NS(=O)(=O)O)[C@@H](O[C@H]8[C@H](O)[C@@H](O)[C@H](Oc9ccc([N+](=O)[O-])cc9)O[C@@H]8C(=O)O)O[C@@H]7COS(=O)(=O)O)O[C@H]6C(=O)O)O[C@@H]5COS(=O)(=O)O)O[C@H]4C(=O)O)O[C@@H]3COS(=O)(=O)O)O[C@@H]2C(=O)O)O[C@H](COS(=O)(=O)O)[C@@H](O)[C@@H]1O [8-mer 4] | – | 4700 nM | – | – | 12 nM
